The source made the active and inactive calls. No cut-off for these calls is given here.
What was measured:
MOLM-14 = assay: Induction of apoptosis in human MOLM14 cells assessed as cleaved PARP level at 0.03 to 1 uM after 24 hrs by immunoblot analysis; format: functional, cell-based
[1] = target: Receptor-type tyrosine-protein kinase FLT3 (Homo sapiens) (UniProt P36888); details: MV4-11, 0.03 to 3 uM
Receptor-type tyrosine-protein kinase FLT3 (Homo sapiens), sequence (P36888 whole entry): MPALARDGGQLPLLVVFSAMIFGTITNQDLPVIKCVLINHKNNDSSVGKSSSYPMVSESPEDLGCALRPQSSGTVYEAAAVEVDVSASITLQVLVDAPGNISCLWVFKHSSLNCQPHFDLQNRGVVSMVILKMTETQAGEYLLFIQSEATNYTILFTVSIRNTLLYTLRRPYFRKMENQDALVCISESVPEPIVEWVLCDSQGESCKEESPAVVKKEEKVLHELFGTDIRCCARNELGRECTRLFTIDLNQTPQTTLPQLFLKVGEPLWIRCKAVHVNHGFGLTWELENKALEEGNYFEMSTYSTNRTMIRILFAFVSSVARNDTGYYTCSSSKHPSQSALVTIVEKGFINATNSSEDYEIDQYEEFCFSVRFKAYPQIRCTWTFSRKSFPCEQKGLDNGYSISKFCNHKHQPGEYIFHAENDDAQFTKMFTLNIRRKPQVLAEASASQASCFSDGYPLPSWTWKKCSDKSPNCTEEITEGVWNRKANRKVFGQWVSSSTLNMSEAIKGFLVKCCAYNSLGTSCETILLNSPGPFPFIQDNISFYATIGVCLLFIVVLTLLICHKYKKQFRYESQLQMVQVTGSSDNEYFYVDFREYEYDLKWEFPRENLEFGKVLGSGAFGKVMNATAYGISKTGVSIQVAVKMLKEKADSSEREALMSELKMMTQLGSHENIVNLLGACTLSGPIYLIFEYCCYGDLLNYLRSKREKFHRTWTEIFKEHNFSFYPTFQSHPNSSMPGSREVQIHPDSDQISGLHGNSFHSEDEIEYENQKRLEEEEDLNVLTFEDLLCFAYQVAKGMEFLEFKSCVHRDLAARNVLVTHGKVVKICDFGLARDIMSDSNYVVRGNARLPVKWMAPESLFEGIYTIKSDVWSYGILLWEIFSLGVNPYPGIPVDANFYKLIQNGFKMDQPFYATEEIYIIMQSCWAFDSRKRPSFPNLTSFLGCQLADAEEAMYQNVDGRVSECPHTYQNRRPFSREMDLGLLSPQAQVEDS
Description: Inhibition of FLT3 mediated Akt phosphorylation at Thr308 residue in human MV4-11 cells at 0.03 to 3 uM for 4 hrs by immunoblot analysis

inhibition [1]: Active
Compound: CN(C)CC(=O)N1CCC[C@@H](n2nc(-c3ccc(Oc4ccccc4)cc3)c3c(N)ncnc32)C1
Activity (MOLM-14): Active

Reference: ChEMBL document CHEMBL3745617 (J Med Chem, 2015)
